In PubChem BioAssay (NCI):
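The compound was tested at five concentrations on cells cultured in 96-well plates, with a 48-hour exposure period. The concentration for full growth arrest is given as TGI.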

Columns and labels:
Assay in all cases: NCI-60 cell line screen, 48 h
HCT-116 colon = system: HCT-116 colon
CAKI-1 renal = system: CAKI-1 renal
NCI/ADR-RES ovarian = system: NCI/ADR-RES ovarian
RXF 393 renal = system: RXF 393 renal
SK-MEL-28 melanoma = system: SK-MEL-28 melanoma
KM12 colon = system: KM12 colon
HOP-62 NSCLC = system: HOP-62 NSCLC
ACHN renal = system: ACHN renal
HT29 colon = system: HT29 colon
SF-268 CNS = system: SF-268 CNS

Measured: TGI

S=C1NC(c2ccccc2)NC(c2ccccc2)S1 (stereo not given)
> 100 µM: HCT-116 colon | CAKI-1 renal | NCI/ADR-RES ovarian | RXF 393 renal | SK-MEL-28 melanoma | KM12 colon | HOP-62 NSCLC | ACHN renal | HT29 colon | SF-268 CNS

Cc1ccc(O)c(C(=O)/C=C/c2ccccc2)c1
> 100 µM: HCT-116 colon | CAKI-1 renal | NCI/ADR-RES ovarian | RXF 393 renal | SK-MEL-28 melanoma | KM12 colon | HOP-62 NSCLC | ACHN renal | HT29 colon | SF-268 CNS
